# Experimental data: PubChem BioAssay (NCI)
#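 Compound exposure: 48 hours, 5 concentrations, 96-well plates. Abbreviation: GI50, concentration required for 50% inhibition of growth. TGI denotes the concentration required for complete inhibition of growth.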
# Assays:
# Test in all cases: DTP human tumour cell line panel, 48 h
# SK-MEL-2 melanoma = tested on: SK-MEL-2 melanoma
# OVCAR-5 ovarian = tested on: OVCAR-5 ovarian
# UO-31 renal = tested on: UO-31 renal
# NCI-H522 lung = tested on: NCI-H522 lung
# HCT-116 colon = tested on: HCT-116 colon
# SN12C renal = tested on: SN12C renal
# HCT-15 colon = tested on: HCT-15 colon
# T-47D breast = tested on: T-47D breast
# OVCAR-3 ovarian = tested on: OVCAR-3 ovarian
# OVCAR-4 ovarian = tested on: OVCAR-4 ovarian
# EKVX NSCLC = tested on: EKVX NSCLC
# OVCAR-8 ovarian = tested on: OVCAR-8 ovarian
# HL-60(TB) leukemia = tested on: HL-60(TB) leukemia
# COLO 205 colon = tested on: COLO 205 colon
# NCI-H226 lung = tested on: NCI-H226 lung
# NCI-H460 lung = tested on: NCI-H460 lung
# SF-268 CNS = tested on: SF-268 CNS
# SF-295 CNS = tested on: SF-295 CNS
# RPMI-8226 leukemia = tested on: RPMI-8226 leukemia
# KM12 colon = tested on: KM12 colon
# UACC-257 melanoma = tested on: UACC-257 melanoma
# 786-0 renal = tested on: 786-0 renal
# NCI/ADR-RES ovarian = tested on: NCI/ADR-RES ovarian
# DU-145 prostate = tested on: DU-145 prostate
# ACHN renal = tested on: ACHN renal
# A549 NSCLC = tested on: A549 NSCLC
# SF-539 CNS = tested on: SF-539 CNS
# HS 578T breast = tested on: HS 578T breast
# NCI-H23 lung = tested on: NCI-H23 lung
# HCC-2998 colon = tested on: HCC-2998 colon
# HOP-62 NSCLC = tested on: HOP-62 NSCLC
# SK-OV-3 ovarian = tested on: SK-OV-3 ovarian
# HT29 colon = tested on: HT29 colon
# BT-549 breast = tested on: BT-549 breast
# M14 melanoma = tested on: M14 melanoma
# MDA-MB-435 = tested on: MDA-MB-435
# SR leukemia = tested on: SR leukemia
# SW-620 colon = tested on: SW-620 colon
# CCRF-CEM leukemia = tested on: CCRF-CEM leukemia
# HOP-92 NSCLC = tested on: HOP-92 NSCLC
# IGROV1 ovarian = tested on: IGROV1 ovarian
# SNB-19 CNS = tested on: SNB-19 CNS
# U251 CNS = tested on: U251 CNS
# RXF 393 renal = tested on: RXF 393 renal
# MDA-MB-231 breast = tested on: MDA-MB-231 breast
# CAKI-1 renal = tested on: CAKI-1 renal
# MOLT-4 leukemia = tested on: MOLT-4 leukemia
# SK-MEL-5 melanoma = tested on: SK-MEL-5 melanoma
# TK-10 renal = tested on: TK-10 renal
# A498 renal = tested on: A498 renal
# MALME-3M melanoma = tested on: MALME-3M melanoma
# LOX IMVI melanoma = tested on: LOX IMVI melanoma
# SK-MEL-28 melanoma = tested on: SK-MEL-28 melanoma
# SNB-75 CNS = tested on: SNB-75 CNS
# MCF7 breast = tested on: MCF7 breast
# UACC-62 melanoma = tested on: UACC-62 melanoma
# PC-3 prostate = tested on: PC-3 prostate
# K-562 leukemia = tested on: K-562 leukemia
smiles,measurement,setting,value
COc1cc2c3c(n(CCCN(C)C)c(=O)c2cc1OC)-c1cc2c(cc1C3=O)OCO2,GI50,SK-MEL-2 melanoma,3450 nM
same,TGI,SK-MEL-2 melanoma,13100 nM
same,GI50,OVCAR-5 ovarian,1200 nM
same,TGI,OVCAR-5 ovarian,2440 nM
same,GI50,UO-31 renal,926 nM
same,TGI,UO-31 renal,2260 nM
same,GI50,NCI-H522 lung,805 nM
same,TGI,NCI-H522 lung,4740 nM
same,GI50,HCT-116 colon,220 nM
same,TGI,HCT-116 colon,1870 nM
same,GI50,SN12C renal,935 nM
same,TGI,SN12C renal,2750 nM
same,GI50,HCT-15 colon,331 nM
same,GI50,T-47D breast,496 nM
same,TGI,T-47D breast,3940 nM
same,GI50,OVCAR-3 ovarian,1330 nM
same,TGI,OVCAR-3 ovarian,2910 nM
same,GI50,OVCAR-4 ovarian,467 nM
same,TGI,OVCAR-4 ovarian,2880 nM
same,GI50,EKVX NSCLC,1460 nM
same,TGI,EKVX NSCLC,3390 nM
same,GI50,OVCAR-8 ovarian,432 nM
same,TGI,OVCAR-8 ovarian,3040 nM
same,GI50,HL-60(TB) leukemia,1010 nM
same,TGI,HL-60(TB) leukemia,3330 nM
same,GI50,COLO 205 colon,944 nM
same,TGI,COLO 205 colon,11700 nM
same,GI50,NCI-H226 lung,1400 nM
same,TGI,NCI-H226 lung,5880 nM
same,GI50,NCI-H460 lung,281 nM
same,TGI,NCI-H460 lung,3370 nM
same,GI50,SF-268 CNS,1110 nM
same,TGI,SF-268 CNS,5590 nM
same,GI50,SF-295 CNS,38.7 nM
same,TGI,SF-295 CNS,1650 nM
same,GI50,RPMI-8226 leukemia,182 nM
same,TGI,RPMI-8226 leukemia,1190 nM
same,GI50,KM12 colon,678 nM
same,TGI,KM12 colon,2680 nM
same,GI50,UACC-257 melanoma,1180 nM
same,TGI,UACC-257 melanoma,2840 nM
same,GI50,786-0 renal,79.9 nM
same,TGI,786-0 renal,583 nM
same,GI50,NCI/ADR-RES ovarian,67.8 nM
same,TGI,NCI/ADR-RES ovarian,564 nM
same,GI50,DU-145 prostate,144 nM
same,TGI,DU-145 prostate,1690 nM
same,GI50,ACHN renal,146 nM
same,TGI,ACHN renal,1140 nM
same,GI50,A549 NSCLC,515 nM
same,TGI,A549 NSCLC,2290 nM
same,GI50,SF-539 CNS,162 nM
same,TGI,SF-539 CNS,1310 nM
same,GI50,HS 578T breast,2300 nM
same,TGI,HS 578T breast,5930 nM
same,GI50,NCI-H23 lung,165 nM
same,TGI,NCI-H23 lung,1590 nM
same,GI50,HCC-2998 colon,< 35.7 nM
same,GI50,HOP-62 NSCLC,18.2 nM
same,TGI,HOP-62 NSCLC,421 nM
same,GI50,SK-OV-3 ovarian,1290 nM
same,TGI,SK-OV-3 ovarian,4330 nM
same,GI50,HT29 colon,70.2 nM
same,TGI,HT29 colon,1780 nM
same,GI50,BT-549 breast,1400 nM
same,TGI,BT-549 breast,3440 nM
same,GI50,M14 melanoma,422 nM
same,TGI,M14 melanoma,1930 nM
same,GI50,MDA-MB-435,650 nM
same,TGI,MDA-MB-435,2130 nM
same,GI50,SR leukemia,< 10 nM
same,TGI,SR leukemia,112 nM
same,TGI,SW-620 colon,1900 nM
same,GI50,CCRF-CEM leukemia,< 10 nM
same,TGI,CCRF-CEM leukemia,403 nM
same,GI50,HOP-92 NSCLC,1840 nM
same,TGI,HOP-92 NSCLC,10600 nM
same,GI50,IGROV1 ovarian,1040 nM
same,TGI,IGROV1 ovarian,2380 nM
same,GI50,SNB-19 CNS,554 nM
same,TGI,SNB-19 CNS,6120 nM
same,GI50,U251 CNS,127 nM
same,TGI,U251 CNS,4000 nM
same,GI50,RXF 393 renal,2480 nM
same,TGI,RXF 393 renal,> 100000 nM
same,GI50,MDA-MB-231 breast,972 nM
same,TGI,MDA-MB-231 breast,2760 nM
same,GI50,CAKI-1 renal,368 nM
same,TGI,CAKI-1 renal,1770 nM
same,GI50,MOLT-4 leukemia,< 10 nM
same,TGI,MOLT-4 leukemia,3400 nM
same,GI50,SK-MEL-5 melanoma,436 nM
same,TGI,SK-MEL-5 melanoma,2090 nM
same,GI50,TK-10 renal,1480 nM
same,TGI,TK-10 renal,3260 nM
same,GI50,A498 renal,9920 nM
same,TGI,A498 renal,33400 nM
same,GI50,MALME-3M melanoma,163 nM
same,TGI,MALME-3M melanoma,1980 nM
same,GI50,LOX IMVI melanoma,66.2 nM
same,TGI,LOX IMVI melanoma,1580 nM
CO[C@@H]1[C@H](O)CC[C@]2(CO2)[C@H]1[C@@]1(C)O[C@@H]1CC=C(C)C,TGI,SK-MEL-2 melanoma,> 200000 nM
same,TGI,SK-MEL-28 melanoma,> 200000 nM
same,TGI,OVCAR-5 ovarian,> 200000 nM
same,TGI,SNB-75 CNS,> 200000 nM
same,TGI,UO-31 renal,> 200000 nM
same,TGI,NCI-H522 lung,> 200000 nM
same,TGI,HCT-116 colon,> 200000 nM
same,TGI,SN12C renal,> 200000 nM
same,TGI,HCT-15 colon,> 200000 nM
same,TGI,T-47D breast,> 200000 nM
same,TGI,OVCAR-3 ovarian,> 200000 nM
same,TGI,OVCAR-4 ovarian,> 200000 nM
same,TGI,EKVX NSCLC,> 200000 nM
same,TGI,COLO 205 colon,> 200000 nM
same,TGI,NCI-H226 lung,> 200000 nM
same,TGI,NCI-H460 lung,> 200000 nM
same,TGI,MCF7 breast,> 200000 nM
same,TGI,UACC-62 melanoma,> 200000 nM
same,TGI,SF-268 CNS,> 200000 nM
same,TGI,SF-295 CNS,> 200000 nM
same,TGI,RPMI-8226 leukemia,> 200000 nM
same,TGI,KM12 colon,> 200000 nM
same,TGI,786-0 renal,> 200000 nM
same,TGI,NCI/ADR-RES ovarian,> 200000 nM
same,TGI,DU-145 prostate,> 200000 nM
same,TGI,ACHN renal,> 200000 nM
same,TGI,SF-539 CNS,> 200000 nM
same,TGI,HS 578T breast,> 200000 nM
same,TGI,NCI-H23 lung,> 200000 nM
same,TGI,HOP-62 NSCLC,> 200000 nM
same,TGI,SK-OV-3 ovarian,> 200000 nM
same,TGI,HT29 colon,> 200000 nM
same,TGI,BT-549 breast,> 200000 nM
same,TGI,M14 melanoma,> 200000 nM
same,TGI,MDA-MB-435,> 200000 nM
same,TGI,SW-620 colon,> 200000 nM
same,TGI,CCRF-CEM leukemia,> 200000 nM
same,TGI,HOP-92 NSCLC,> 200000 nM
same,TGI,PC-3 prostate,> 200000 nM
same,TGI,IGROV1 ovarian,> 200000 nM
same,TGI,SNB-19 CNS,> 200000 nM
same,TGI,U251 CNS,> 200000 nM
same,TGI,RXF 393 renal,> 200000 nM
same,TGI,MDA-MB-231 breast,> 200000 nM
same,TGI,CAKI-1 renal,> 200000 nM
same,TGI,K-562 leukemia,> 200000 nM
same,TGI,MOLT-4 leukemia,> 200000 nM
same,TGI,SK-MEL-5 melanoma,> 200000 nM
same,TGI,TK-10 renal,> 200000 nM
same,TGI,A498 renal,> 200000 nM
same,TGI,MALME-3M melanoma,> 200000 nM
same,TGI,LOX IMVI melanoma,> 200000 nM
